Measured values published in ChEMBL document CHEMBL1201862, “PubChem BioAssay data set” (2004).
Active and inactive are the calls of the source.

Key:
CAAX prenyl protease 2 = CAAX prenyl protease 2 (Saccharomyces cerevisiae S288c, UniProt Q03530); type: biochemical
Trypsin = Trypsin (Sus scrofa, UniProt P00761); assay: porcine trypsin inhibitors, dose response, selectivity assay for Rce1 protease inhibitor project, biochemical, quenched peptide fluorescence, cherry-pick (AID 488789)
Coagulation factor XII = biological target: T1, Coagulation factor XII (Homo sapiens, UniProt P00748); assay: FXIIa inhibitor potency, concentration-response, biochemical (AID 716); type: functional
T1 sequence (P00748 whole entry): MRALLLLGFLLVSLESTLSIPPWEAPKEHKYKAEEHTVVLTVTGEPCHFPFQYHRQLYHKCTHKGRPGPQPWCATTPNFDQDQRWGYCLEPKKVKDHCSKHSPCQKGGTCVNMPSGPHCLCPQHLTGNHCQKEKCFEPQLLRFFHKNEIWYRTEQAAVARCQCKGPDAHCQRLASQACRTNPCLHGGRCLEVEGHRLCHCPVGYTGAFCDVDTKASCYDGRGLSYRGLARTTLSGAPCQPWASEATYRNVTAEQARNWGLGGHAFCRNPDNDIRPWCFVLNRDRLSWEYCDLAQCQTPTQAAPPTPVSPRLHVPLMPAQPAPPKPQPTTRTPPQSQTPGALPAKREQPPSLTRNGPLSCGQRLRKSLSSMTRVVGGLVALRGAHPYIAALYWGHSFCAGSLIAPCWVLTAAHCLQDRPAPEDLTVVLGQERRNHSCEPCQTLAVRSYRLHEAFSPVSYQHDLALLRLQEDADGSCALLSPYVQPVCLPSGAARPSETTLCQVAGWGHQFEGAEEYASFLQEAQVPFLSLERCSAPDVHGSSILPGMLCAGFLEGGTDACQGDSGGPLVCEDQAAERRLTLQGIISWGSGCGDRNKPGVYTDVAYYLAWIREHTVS

Hexokinase HKDC1 = biological target: T2, Hexokinase HKDC1 (Homo sapiens, UniProt Q2TB90); assay: HKDC1 hexokinase activators, dose response, biochemical, W721R variant (AID 504730); type: functional
T2 sequence (Q2TB90 whole entry): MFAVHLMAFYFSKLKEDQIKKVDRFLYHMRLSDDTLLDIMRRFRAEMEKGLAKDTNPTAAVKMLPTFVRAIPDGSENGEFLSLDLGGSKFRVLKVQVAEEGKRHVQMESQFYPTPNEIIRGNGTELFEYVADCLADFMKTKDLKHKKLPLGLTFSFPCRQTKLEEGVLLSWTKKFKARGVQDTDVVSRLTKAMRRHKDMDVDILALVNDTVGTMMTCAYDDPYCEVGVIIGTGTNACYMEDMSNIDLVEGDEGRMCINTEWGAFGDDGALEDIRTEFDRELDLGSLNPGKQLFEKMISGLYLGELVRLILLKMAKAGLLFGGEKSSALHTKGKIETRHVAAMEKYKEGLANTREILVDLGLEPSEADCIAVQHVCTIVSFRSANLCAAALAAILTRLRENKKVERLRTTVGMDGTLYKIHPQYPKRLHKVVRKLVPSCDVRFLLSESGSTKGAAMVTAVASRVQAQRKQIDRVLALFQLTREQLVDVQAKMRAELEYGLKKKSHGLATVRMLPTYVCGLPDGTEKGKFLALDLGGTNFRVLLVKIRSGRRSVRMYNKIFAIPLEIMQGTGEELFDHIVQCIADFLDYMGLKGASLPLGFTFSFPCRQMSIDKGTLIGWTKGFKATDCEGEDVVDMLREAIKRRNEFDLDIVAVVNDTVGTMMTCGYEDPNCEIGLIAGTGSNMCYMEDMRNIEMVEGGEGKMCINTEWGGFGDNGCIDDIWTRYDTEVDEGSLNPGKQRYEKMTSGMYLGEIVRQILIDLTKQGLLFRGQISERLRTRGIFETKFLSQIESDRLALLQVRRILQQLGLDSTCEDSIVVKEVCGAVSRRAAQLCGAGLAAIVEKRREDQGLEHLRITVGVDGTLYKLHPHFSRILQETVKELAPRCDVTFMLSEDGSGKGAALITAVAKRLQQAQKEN

Hexokinase-1 = Hexokinase-1 (Homo sapiens, UniProt P19367); assay: hexokinase 1 activators, dose response, selectivity assay for HKDC1 activator project, biochemical (AID 504762); type: functional
[1] = biological target: DNA damage-inducible transcript 3 protein (Mus musculus, UniProt P35639); type: functional, Cricetulus griseus
[2] = Luminescence Cell-Based Dose Retest to Confirm Inhibitors of Cancer Stem Cells. [Related pubchem assays (depositor defined):AID2717, AID2721]; type: functional; settings: Homo sapiens
T-cell = assay: inhibitors of CD8+ T cell–vesicle binding, dose response, mouse 2C CD8+ T cells, flow cytometry (AID 485284); type: functional
Hexokinase = Hexokinase (Trypanosoma brucei, UniProt Q38C41); assay: Confirmation assay for inhibitors of Trypanosoma brucei hexokinase 1-Analogue-first series. [Related pubchem assays (depositor defined):AID1430, AID1632, AID2516, AID2560, AID2579, AID2600, AID449725, AID492951]; type: functional
[3] = biological target: G-protein coupled receptor 55 (Homo sapiens, UniProt Q9Y2T6); assay: SAR Analysis of Selective Antagonists of GPR55 using an Image-Based Assay - Set 4. [Related pubchem assays (depositor defined):AID2013, AID2026]; type: functional;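 further: antagonism of response to 5 µM lysophosphatidylinositol agonist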
Cannabinoid receptor 2 [4] = biological target: T3, Cannabinoid receptor 2 (Homo sapiens, UniProt P34972); assay: SAR analysis of agonists of the Cannabinoid Receptor 2 using an Image-Based Assay - Set 3. [Related pubchem assays (depositor defined):AID2013, AID2026]; type: functional
Cannabinoid receptor 2 [5] = biological target: T3, Cannabinoid receptor 2; assay: SAR analysis of antagonists of the Cannabinoid Receptor 2 using an Image-Based Assay - Set 3. [Related pubchem assays (depositor defined):AID2013, AID2026]; type: functional
Cannabinoid receptor 1 [6] = biological target: T4, Cannabinoid receptor 1 (Homo sapiens, UniProt P21554); assay: SAR analysis of agonists of the Cannabinoid Receptor 1 using an Image-Based Assay - Set 4. [Related pubchem assays (depositor defined):AID2013, AID2026]; type: functional
[7] = biological target: T5, G-protein coupled receptor 35 (Homo sapiens, UniProt Q9HC97); assay: SAR analysis of Agonists of the GPR35 Receptor using an Image-Based Assay - Set 4. [Related pubchem assays (depositor defined):AID2013, AID2026]; type: functional
Cannabinoid receptor 1 [8] = biological target: T4, Cannabinoid receptor 1; assay: SAR analysis of antagonists of the Cannabinoid Receptor 1 using an Image-Based Assay - Set 4. [Related pubchem assays (depositor defined):AID2013, AID2026]; type: functional
[9] = biological target: T5, G-protein coupled receptor 35; assay: SAR analysis of Antagonists of the GPR35 Receptor using an Image-Based Assay - Set 6. [Related pubchem assays (depositor defined):AID2013, AID2026]; type: functional
[10] = biological target: Dual specificity protein phosphatase 3 (Homo sapiens, UniProt P51452); assay: SAR VHR1 Fluorescent Assay for In Vitro dose response studies Set 2. [Related pubchem assays (depositor defined):AID1654, AID1661, AID1878]; type: functional
[11] = biological target: T6, Dual specificity protein phosphatase 6 (Rattus norvegicus, UniProt Q64346); type: functional;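 further: confirmatory in vitro dose-response testing of MKP-3 inhibition; recombinant His-tagged MKP-3 made in E. coli BL21 with OMFP substrate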
T6 sequence (Q64346 whole entry): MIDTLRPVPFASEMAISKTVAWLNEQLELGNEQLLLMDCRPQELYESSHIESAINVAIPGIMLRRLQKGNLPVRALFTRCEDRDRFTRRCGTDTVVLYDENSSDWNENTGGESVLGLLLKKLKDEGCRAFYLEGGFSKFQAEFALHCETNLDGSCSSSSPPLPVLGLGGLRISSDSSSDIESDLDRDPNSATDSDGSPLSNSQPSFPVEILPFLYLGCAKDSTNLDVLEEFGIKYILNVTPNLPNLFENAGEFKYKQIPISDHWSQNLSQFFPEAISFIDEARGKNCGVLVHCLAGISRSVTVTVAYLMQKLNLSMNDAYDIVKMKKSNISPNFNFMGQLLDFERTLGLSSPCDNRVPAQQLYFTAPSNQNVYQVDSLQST

[12] = biological target: Tyrosine-protein phosphatase non-receptor type 12 (Homo sapiens, UniProt Q05209); assay: SAR Selectivity Analysis of small molecule inhibitors of PEST using pCAP in a fluorescence assay. [Related pubchem assays (depositor defined):AID1779, AID1784, AID2135]; type: functional
[13] = biological target: T7, Tyrosine-protein phosphatase non-receptor type 7 (Homo sapiens, UniProt P35236); assay: redox-dependent HePTP inhibition, mechanism study, biochemical, fluorescence (AID 2068); type: functional
T7 sequence (P35236 whole entry): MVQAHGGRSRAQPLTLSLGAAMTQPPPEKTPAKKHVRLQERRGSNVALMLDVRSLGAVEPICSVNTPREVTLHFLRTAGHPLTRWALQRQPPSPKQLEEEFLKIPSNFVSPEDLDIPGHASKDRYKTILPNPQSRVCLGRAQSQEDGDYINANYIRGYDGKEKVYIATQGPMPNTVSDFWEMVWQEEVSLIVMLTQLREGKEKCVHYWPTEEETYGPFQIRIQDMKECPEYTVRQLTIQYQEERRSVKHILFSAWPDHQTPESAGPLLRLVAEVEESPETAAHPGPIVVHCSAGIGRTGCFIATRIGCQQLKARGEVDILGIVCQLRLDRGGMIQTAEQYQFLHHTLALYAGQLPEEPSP

[14] = biological target: T7, Tyrosine-protein phosphatase non-receptor type 7; assay: HePTP (PTPN7) phosphatase inhibitor potency, SAR follow-up, biochemical, set 2 (AID 449736); type: functional
[15] = biological target: T8, Tyrosine-protein phosphatase non-receptor type 22 (Homo sapiens, UniProt Q9Y2R2); assay: LYP (PTPN22) phosphatase inhibitor potency, SAR follow-up, biochemical, pCAP fluorogenic substrate, fluorescence, set 3 (AID 449727); type: functional
T8 sequence (Q9Y2R2 whole entry): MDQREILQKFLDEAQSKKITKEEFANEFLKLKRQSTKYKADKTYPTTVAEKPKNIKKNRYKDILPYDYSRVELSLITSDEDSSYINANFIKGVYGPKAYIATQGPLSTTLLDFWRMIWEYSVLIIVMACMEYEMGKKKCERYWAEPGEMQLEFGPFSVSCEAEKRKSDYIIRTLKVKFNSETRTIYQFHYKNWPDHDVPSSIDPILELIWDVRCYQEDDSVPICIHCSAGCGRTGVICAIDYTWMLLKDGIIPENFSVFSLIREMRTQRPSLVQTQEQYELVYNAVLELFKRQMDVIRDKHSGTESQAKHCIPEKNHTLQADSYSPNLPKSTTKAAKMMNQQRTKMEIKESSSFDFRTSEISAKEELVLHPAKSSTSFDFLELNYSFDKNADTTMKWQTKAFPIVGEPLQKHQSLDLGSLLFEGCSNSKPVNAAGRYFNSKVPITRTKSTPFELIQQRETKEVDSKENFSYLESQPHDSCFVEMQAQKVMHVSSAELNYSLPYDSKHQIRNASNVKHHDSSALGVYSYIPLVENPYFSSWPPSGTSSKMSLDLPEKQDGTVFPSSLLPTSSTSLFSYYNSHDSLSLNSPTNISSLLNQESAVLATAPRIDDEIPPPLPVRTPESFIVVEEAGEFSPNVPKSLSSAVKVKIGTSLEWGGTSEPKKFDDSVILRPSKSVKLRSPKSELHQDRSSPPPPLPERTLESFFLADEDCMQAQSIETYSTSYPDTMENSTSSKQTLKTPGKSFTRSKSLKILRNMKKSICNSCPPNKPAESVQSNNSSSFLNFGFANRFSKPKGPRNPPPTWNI

[16] = biological target: T8, Tyrosine-protein phosphatase non-receptor type 22; assay: SAR LYP1 Fluorescent Assay using OMFP substrate for In Vitro dose response studies - Set 3. [Related pubchem assays (depositor defined):AID1779, AID1784, AID2140, AID2686]; type: functional
[17] = biological target: DNA dC->dU-editing enzyme APOBEC-3G (Homo sapiens, UniProt Q9HC16); type: functional;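 further: Dose-response counterscreen measuring inhibition of APOBEC3G DNA deaminase activity, run while confirming APOBEC3A inhibitors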
[18] = biological target: DNA dC->dU-editing enzyme APOBEC-3A (Homo sapiens, UniProt P31941); assay: Dose Response confirmation of small molecule APOBEC3A DNA Deaminase Inhibitors via a fluorescence-based single-stranded DNA deaminase assay. [Related pubchem assays (depositor defined):AID493011, AID493024]; type: functional
Chain of DNA dC->dU-editing enzyme APOBEC-3A (P31941 whole entry): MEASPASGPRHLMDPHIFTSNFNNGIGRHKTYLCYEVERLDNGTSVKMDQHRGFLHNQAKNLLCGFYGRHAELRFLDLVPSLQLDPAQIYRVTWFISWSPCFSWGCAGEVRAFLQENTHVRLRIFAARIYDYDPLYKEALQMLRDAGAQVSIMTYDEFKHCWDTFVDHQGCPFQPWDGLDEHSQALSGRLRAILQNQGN

T4 sequence (P21554 whole entry): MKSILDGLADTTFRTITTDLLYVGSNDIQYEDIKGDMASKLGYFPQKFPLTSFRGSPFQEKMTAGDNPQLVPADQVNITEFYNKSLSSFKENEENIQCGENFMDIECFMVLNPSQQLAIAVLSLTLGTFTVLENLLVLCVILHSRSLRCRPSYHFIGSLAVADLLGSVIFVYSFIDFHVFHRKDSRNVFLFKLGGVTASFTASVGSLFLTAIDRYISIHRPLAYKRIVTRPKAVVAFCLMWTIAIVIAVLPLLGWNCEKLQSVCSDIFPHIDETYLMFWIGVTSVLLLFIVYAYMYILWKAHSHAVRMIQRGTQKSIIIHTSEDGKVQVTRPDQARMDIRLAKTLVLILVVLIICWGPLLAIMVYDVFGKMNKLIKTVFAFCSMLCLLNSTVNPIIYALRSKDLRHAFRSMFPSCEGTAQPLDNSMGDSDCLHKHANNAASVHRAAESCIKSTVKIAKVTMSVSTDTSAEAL
T5 sequence (Q9HC97 whole entry): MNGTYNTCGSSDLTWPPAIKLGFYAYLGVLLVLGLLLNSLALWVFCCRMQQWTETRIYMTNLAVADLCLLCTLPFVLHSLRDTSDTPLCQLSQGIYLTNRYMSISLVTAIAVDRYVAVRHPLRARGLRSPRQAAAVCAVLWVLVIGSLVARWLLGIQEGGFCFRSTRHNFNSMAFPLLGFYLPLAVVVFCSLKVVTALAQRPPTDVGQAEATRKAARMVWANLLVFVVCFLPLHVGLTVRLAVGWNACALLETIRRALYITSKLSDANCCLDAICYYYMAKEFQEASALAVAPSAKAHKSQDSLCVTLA
T3 sequence (P34972 whole entry): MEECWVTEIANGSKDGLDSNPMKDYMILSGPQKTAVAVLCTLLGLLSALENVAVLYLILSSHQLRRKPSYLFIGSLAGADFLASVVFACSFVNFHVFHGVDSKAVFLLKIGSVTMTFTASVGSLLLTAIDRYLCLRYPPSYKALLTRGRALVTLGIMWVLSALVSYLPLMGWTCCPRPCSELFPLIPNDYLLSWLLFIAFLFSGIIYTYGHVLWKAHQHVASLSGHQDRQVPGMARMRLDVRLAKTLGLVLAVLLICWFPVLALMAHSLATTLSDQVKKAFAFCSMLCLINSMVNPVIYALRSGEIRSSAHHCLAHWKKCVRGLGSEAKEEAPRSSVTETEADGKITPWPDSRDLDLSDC
Chain of CAAX prenyl protease 2 (Q03530 whole entry): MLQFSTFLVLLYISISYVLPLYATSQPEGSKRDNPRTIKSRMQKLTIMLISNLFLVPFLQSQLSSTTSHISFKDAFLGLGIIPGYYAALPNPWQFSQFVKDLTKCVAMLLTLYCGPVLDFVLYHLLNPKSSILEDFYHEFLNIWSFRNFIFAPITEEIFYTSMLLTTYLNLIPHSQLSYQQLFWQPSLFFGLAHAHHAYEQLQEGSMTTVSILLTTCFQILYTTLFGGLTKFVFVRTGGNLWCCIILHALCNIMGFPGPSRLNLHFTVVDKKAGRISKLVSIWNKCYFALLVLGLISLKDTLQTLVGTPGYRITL
Chain of G-protein coupled receptor 55 (Q9Y2T6 whole entry): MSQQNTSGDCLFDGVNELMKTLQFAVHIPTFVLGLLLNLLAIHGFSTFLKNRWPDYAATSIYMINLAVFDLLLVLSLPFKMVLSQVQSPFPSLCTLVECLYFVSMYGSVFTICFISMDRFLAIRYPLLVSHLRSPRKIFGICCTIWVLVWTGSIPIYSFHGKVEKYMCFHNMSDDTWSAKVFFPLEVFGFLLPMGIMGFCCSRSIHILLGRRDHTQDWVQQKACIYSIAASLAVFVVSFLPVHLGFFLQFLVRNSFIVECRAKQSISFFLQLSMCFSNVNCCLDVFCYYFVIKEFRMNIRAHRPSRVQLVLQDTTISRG
Chain of Dual specificity protein phosphatase 3 (P51452 whole entry): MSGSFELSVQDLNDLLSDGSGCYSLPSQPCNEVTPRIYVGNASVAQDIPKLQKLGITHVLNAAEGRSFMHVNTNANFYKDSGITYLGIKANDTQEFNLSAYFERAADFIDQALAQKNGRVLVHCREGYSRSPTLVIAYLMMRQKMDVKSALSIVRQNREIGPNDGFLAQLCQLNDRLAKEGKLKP
Chain of DNA dC->dU-editing enzyme APOBEC-3G (Q9HC16 whole entry): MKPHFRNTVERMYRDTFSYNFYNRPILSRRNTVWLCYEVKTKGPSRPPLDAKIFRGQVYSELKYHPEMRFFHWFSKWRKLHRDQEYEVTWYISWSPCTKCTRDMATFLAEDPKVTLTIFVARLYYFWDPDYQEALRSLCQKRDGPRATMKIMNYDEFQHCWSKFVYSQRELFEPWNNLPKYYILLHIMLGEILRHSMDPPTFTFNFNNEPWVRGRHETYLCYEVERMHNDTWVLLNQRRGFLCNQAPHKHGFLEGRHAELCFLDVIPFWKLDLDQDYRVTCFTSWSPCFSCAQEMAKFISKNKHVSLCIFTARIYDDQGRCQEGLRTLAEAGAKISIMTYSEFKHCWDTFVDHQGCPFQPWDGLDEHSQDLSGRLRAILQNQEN
Chain of Tyrosine-protein phosphatase non-receptor type 12 (Q05209 whole entry): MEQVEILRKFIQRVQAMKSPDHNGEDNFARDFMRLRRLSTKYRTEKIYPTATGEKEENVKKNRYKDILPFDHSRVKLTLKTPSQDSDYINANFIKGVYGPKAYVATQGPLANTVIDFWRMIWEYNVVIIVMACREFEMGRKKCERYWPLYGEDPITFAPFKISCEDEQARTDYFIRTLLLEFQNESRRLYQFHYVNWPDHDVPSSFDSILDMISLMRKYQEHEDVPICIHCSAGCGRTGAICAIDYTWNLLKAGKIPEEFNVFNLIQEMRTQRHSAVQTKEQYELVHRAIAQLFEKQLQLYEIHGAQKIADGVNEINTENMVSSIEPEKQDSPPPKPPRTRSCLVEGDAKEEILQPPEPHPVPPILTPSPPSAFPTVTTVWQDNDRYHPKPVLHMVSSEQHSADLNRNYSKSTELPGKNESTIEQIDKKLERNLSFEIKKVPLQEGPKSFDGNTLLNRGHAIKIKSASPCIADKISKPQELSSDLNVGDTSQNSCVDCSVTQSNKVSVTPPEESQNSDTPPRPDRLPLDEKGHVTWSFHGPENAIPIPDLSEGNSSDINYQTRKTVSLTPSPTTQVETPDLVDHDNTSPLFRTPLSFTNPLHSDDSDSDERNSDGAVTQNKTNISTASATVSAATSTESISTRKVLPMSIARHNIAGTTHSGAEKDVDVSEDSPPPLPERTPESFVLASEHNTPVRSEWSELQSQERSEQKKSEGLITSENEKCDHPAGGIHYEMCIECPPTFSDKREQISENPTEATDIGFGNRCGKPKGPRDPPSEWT
Chain of Hexokinase (Q38C41 whole entry): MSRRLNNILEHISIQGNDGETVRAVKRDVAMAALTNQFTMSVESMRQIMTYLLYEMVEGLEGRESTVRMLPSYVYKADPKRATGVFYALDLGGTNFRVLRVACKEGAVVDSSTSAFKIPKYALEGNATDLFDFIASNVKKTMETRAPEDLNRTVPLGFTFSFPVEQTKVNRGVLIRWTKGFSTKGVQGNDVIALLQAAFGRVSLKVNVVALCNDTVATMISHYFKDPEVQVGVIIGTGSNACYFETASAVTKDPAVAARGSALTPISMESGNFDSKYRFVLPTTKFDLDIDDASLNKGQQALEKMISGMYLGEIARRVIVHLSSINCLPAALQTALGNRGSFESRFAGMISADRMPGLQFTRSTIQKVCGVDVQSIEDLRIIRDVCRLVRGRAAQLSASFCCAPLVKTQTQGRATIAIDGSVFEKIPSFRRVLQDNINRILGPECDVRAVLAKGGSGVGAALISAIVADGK
Chain of Trypsin (P00761 whole entry): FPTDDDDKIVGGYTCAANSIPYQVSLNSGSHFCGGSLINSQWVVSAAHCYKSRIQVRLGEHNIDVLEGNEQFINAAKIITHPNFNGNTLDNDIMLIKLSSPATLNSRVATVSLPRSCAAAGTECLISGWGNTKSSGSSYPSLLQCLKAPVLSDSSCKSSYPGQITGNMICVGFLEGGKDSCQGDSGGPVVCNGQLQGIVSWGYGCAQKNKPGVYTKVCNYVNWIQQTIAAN
Chain of Hexokinase-1 (P19367 whole entry): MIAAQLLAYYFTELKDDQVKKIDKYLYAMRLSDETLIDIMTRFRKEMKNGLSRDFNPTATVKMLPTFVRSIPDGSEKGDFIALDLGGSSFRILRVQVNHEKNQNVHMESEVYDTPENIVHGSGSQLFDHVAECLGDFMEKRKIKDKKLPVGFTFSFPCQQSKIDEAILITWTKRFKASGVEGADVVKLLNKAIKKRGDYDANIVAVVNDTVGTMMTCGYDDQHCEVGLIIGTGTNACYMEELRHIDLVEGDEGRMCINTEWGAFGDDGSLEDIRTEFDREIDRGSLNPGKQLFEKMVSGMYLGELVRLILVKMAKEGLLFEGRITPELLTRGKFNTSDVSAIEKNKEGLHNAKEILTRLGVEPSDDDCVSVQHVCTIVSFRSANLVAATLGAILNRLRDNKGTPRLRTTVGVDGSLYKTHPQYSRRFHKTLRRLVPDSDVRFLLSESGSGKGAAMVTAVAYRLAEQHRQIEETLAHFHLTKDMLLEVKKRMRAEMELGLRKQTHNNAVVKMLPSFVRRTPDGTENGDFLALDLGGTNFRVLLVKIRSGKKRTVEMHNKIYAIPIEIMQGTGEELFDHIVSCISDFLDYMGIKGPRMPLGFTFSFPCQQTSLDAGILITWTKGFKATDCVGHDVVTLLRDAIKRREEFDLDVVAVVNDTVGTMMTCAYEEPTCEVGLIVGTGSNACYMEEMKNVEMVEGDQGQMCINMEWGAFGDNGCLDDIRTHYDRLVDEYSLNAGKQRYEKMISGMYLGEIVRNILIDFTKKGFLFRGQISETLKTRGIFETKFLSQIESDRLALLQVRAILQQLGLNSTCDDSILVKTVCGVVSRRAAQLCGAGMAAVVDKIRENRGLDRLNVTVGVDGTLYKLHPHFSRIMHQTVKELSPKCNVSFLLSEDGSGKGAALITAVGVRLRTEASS

COc1ccccc1-c1cc(C(F)(F)F)n2ncc(S(=O)(=O)c3ccccc3)c2n1
AC50 (CAAX prenyl protease 2): 75.9 µM (active)
AC50 (Trypsin): 13.1 µM (active)

COc1ccccc1-n1c(S)nnc1CNC(=O)COc1ccccc1
IC50 (Coagulation factor XII): > 50 µM (inactive)

Cn1c(=O)c2c(nc(NN/C=C3/C(=O)NC(=S)N(C4CCCCC4)C3=O)n2C)n(C)c1=O
EC50 (Hexokinase HKDC1): > 80 µM (inactive)
EC50 (Hexokinase-1): 75.9 µM (inactive)

NC(=O)CC(NC(=O)Cc1cccc2ccccc12)c1ccc(NCc2ccccc2)c([N+](=O)[O-])c1 (stereo not given)
Absolute IC50 (CHOP) [1]: 10 µM
AC50 [2]: 5.5 µM (active)

COc1ccc2c(c1)C1NC(S)=NC(C)(O2)C1C(=O)Nc1ccc(Cl)cc1 (stereo not given)
EC50 (T-cell): 31.3 µM (inactive)

CC(C)(C)c1ccc(C(=O)Nc2cc(Cl)c(Cl)cc2C(=O)O)cc1
IC50 (Hexokinase): 1.36 µM (active)

CCOc1ccc(CC(=O)N2CCC(n3nc(-c4ccccc4)oc3=O)CC2)cc1
IC50 [3]: > 32 µM (inactive)
EC50 (Cannabinoid receptor 2 [4]): > 32 µM (inactive)
IC50 (Cannabinoid receptor 2 [5]): > 32 µM (inactive)
EC50 (Cannabinoid receptor 1 [6]): > 32 µM (inactive)
EC50 [7]: > 32 µM (inactive)
IC50 (Cannabinoid receptor 1 [8]): 7.68 µM (active)
IC50 [9]: > 32 µM (inactive)

COc1cc(/C=C2/S/C(=N\c3cccc(Br)c3)NC2=O)ccc1OCC(=O)O
IC50 [10]: > 100 µM (inactive)
IC50 [11]: > 100 µM (inactive)
IC50 [12]: 7.86 µM (active)
IC50 [13]: 7.44 µM (active)
IC50 [14]: 1.57 µM (active)
IC50 [15]: 32 µM (active)
IC50 [16]: 68.8 µM (active)

Cc1cc(N/N=C/c2ccc(O)cc2)nc(NS(=O)(=O)c2ccccc2)n1
IC50 [17]: 72.6 µM (active)
IC50 [18]: 21.9 µM (active)
